According to patent US20040180915A1, “Methadone-containing compositions for parenteral administration and method of use thereof” (priority 2003, published 2004):

Experiments:
[1] = test system: molds and yeasts; details: relative to activity against bacteria; cited from earlier work
[2] = test system: microorganisms; details: cited from earlier work
[3] = test system: gram-positive and gram-negative bacteria; details: cited from earlier work
[4] = oral vs intramuscular; cited from earlier work
[5] = cited from earlier work
[6] = ECG/EKG comparison of QTc intervals in patients on and off treatment
Source text: Applicants' also performed a comparison study involving hundreds of EKG's performed on patients treated with IV methadone versus the EKG's of patients not being treated with the IV methadone.

[7] = in vivo; cited from earlier work
[8] = cited from earlier work; remark: listed apart in the source

## COC(=O)c1ccc(O)cc1 [Methylparaben]
[1]
  activity against growth of molds and yeasts: slightly weaker
[2]
  pH range (optimal pH range for activity): 3.0-9.5
[3]
  activity against growth of gram-positive and gram-negative bacteria: strongly active

## O=C(O)c1ccccc1 [Benzoic acid]
[1]
  activity against growth of molds and yeasts: slightly weaker
[2]
  pH range (optimal pH range for activity): 2-5
[3]
  activity against growth of gram-positive and gram-negative bacteria: strongly active

## CCCOC(=O)c1ccc(O)cc1 [Propylparaben]
[2]
  pH range (optimal pH range for activity): 3.0-9.5

## CCC(=O)C(CC(C)N(C)C)(c1ccccc1)c1ccccc1 (stereo not drawn) [methadone]
[4]
  total analgesic effects, oral relative to same dose intramuscularly: about 50%
[5]; after subcutaneous injection
  time to appreciable concentrations in plasma: ≤ 10 min
[5]; oral
  time to detection in blood plasma after ingestion: ≤ 30 min
[6]; at least one patient
  QTc prolongation after switch from IV route to oral route: reversed
[6]; orally ingested methadone in a formulation without chlorobutanol
  prolongation in QTc interval times: did not show a similar prolongation

## C/C=C/C=C/C(=O)O [Sorbic acid]
[1]
  activity against growth of molds and yeasts: slightly weaker
[2]
  pH range (optimal pH range for activity): <6.5
[3]
  activity against growth of gram-positive and gram-negative bacteria: strongly active

## CC(C)(O)C(Cl)(Cl)Cl [chlorobutanol]
[7]
  half-life: over 10 days

## Benzalkonium chloride
[1]
  activity against growth of molds and yeasts: slightly weaker
[2]
  pH range (optimal pH range for activity): 4-10
[3]
  activity against growth of gram-positive and gram-negative bacteria: strongly active

## Cetrimide
[1]
  activity against growth of molds and yeasts: slightly weaker
[2]
  pH range (optimal pH range for activity): 4-10
[3]
  activity against growth of gram-positive and gram-negative bacteria: strongly active

## CCCCOC(=O)c1ccc(O)cc1 [Butylparaben]
[2]
  pH range (optimal pH range for activity): 3.0-9.5
[8]
  water solubility: about 0.2%
